What was measured:
[1] = test system: keratinocyte-melanocyte co-cultures (Human HaCaT keratinocytes, human primary melanocytes); test: Induced pigmentation in keratinocyte-melanocyte co-cultures, DOPA staining and computerized image analysis; type: cell-based; conditions: three daily treatments; for Mean area: DOPA stain, relative pigmented area; for % increase: versus control
Method: The peptide Peptide 1 and various pigments were tested, alone or in combination, with keratinocyte-melanocyte cultures for their effect on cell pigmentation, using DOPA staining and computerized image analysis. The pigments that were tested were copper chloride from Sigma (St. Louis, Mo.) and the water-soluble melanin derivative Melasyn-100™ from San-mar laboratories, Inc. (Elmsford, N.Y.). The pigments were tested at concentrations ranging from 0.0001% (W/V) to 0.1% (W/V) and peptides were tested at 50 μM.
The assay was conducted in the following manner. Human HaCaT keratinocytes (Boukamp P., et al., J Cell Biol 106, 3, 761-771 (1988)) were maintained in Dulbecco's Modified Eagle's Medium (DMEM) containing 10% fetal bovine serum (FBS), 4.5 mg/ml glucose, 2 mM L-glutamine, 50 U/ml penicillin and 50 μg/ml streptomycin (Life Technologies, Gaithersburg, Md.). Cells were maintained at <80% confluency in 5% CO2 (v/v) and were used in experimental procedures up to culture passage 15. Human primary melanocytes (Clonetics, San Diego, Calif. or Cascade Biologics, Portland, Oreg.) were maintained according to manufacturer's instructions. To establish keratinocyte-melanocyte co-cultures, 6×10^4 melanocytes were plated in each well of a 24 well plate and maintained according to manufacturer's instructions.
Melanocytes were rinsed three times with melanocyte growth media without PMA and keratinocytes (6×10^4) were plated to establish the co-cultures in this media. Co-cultures were treated for three days with test peptides and pigments, and assayed for cell viability and pigment level on the forth day. Cell viability was assayed using alamarBlue™ (Acumed International, West Lake, Ohio) following manufacturer's instructions. No change in viability was observed following three daily treatments with all tested material. All in vitro experiments were performed in triplicates, and were repeated at least three times.
Following three daily treatments, the co-cultures were briefly fixed (10% buffered formalin from Fisher Scientific, 15 minutes), washed three times with Phosphate-buffered saline (PBS, from Life Technologies) and stained with L-3,4-Dihydroxyphenylalanine (DOPA, from Sigma, St. Louis, Mo.) 0.1% in PBS, for 5 hours at 37° C., followed by two PBS washes and formalin (10%, overnight) fixation. DOPA is a substrate for tyrosinase, therefore an increase in staining represents increased tyrosinase activity and pigment production. DOPA-stained monolayers were used for image analysis. All images were obtained and analyzed with Image Pro Plus 3.0 software (Media Cybernetics, Silver Spring, Md.). Parameters measured were surface area of stained material within melanocyte and keratinocytes and the total surface area of the cells in the culture, and the relative pigmented area was calculated. A value of 100% was assigned to untreated controls, and values of treatment groups were normalized to their relevant controls. In all experiments there was no difference between PBS-treated cells and untreated controls. Data are presented with standard deviation (SigmaPlot® 5.0, SPSS Science, Chicago, Ill.).
Forskolin (Sigma, St. Louis, Mo.), a known inducer of pigmentation, served as a positive control and a reference point. Forskolin was administered at 1% (W/V).

[2] = test system: Dark skinned Yucatan microswine; test: Induced pigmentation in vivo, F&M-stained skin sections of topically treated swine; parameters: key: −1: Slight lightening; 0: No change; 1: Minimal increase in pigment deposition; 2: Increased pigment deposition; 3: Strong increase in pigment deposition, some increase in caps; 4: Strong increase in pigment deposition, strong increase in caps; conditions: topical, twice a day, five days/week, eight or nine weeks; average of all sites of responsive swine; positive controls 1% (W/V), peptides 250 or 500 μM, pigments 1% or 5% (W/V)
Method: Compositions of the present invention were tested for their ability to induce in vivo pigmentation in skin cells in the following experiment. Dark skinned Yucatan microswine (Charles River, Portland, Me.) were housed in appropriately sized cages in an environmentally controlled room with a 12-hour light-12-hour dark photoperiod and supplied with food and water ad libitum. Animal care was based on the “Guide for the Care and Use of Laboratory Animals”, NIH Publication No. 85-23. Twenty μl of test peptides were applied topically, twice a day, five days/week, for eight or nine weeks, on the dorsum of the swine. Treatments of individual swine were always arranged in a head to tail order on one side, and in a tail to head order on the other side of the animal. Biopsies were taken using standard techniques.
Sections from the skin biopsies were stained with Hematoxylin and Eosin (H&E), or with Fontana-Mason (F&M), using standard procedures (Sheenan DC, Hrapckak BB, eds., Theory and Practice of Histo-technology. p. 223, 277, The C. V. Mosby Co., St. Louis (1980)). F&M staining identifies silver nitrate reducing molecules. In skin, this non-specific stain identifies primarily melanin. At least three sections per biopsy were processed. […]
F&M-stained histological skin sections were evaluated for the change in pigment deposition within the treated site. […]

Compound	Mean area ([1]; 0.001% (W/V))	% increase ([1]; 0.001% (W/V)) [%]	Mean area ([1]; 0.1% (W/V))	% increase ([1]; 0.1% (W/V)) [%]	Score (change in pigment deposition) [2]	Mean area ([1]; 50 μM)	% increase ([1]; 50 μM) [%]
[Cl][Cu][Cl] [CuCl2, copper chloride]	0.173	120	0.246	212	–	–	–
C=C[C@@]1(C)CC(=O)[C@]2(O)[C@@]3(C)[C@@H](O)CCC(C)(C)[C@@H]3[C@H](O)[C@H](OC(C)=O)[C@@]2(C)O1 [Forskolin]	–	–	–	–	1	–	–
H2-Val-Gly-Val-Ala-Pro-Gly-NH2 (H-VGVAPG-NH2) [Peptide 1]	–	–	–	–	1	0.131	66.6

— US20020197219A1, “Composition containing a peptide and a pigment and the use thereof in darkening the skin” (priority 2001, published 2002)
